“Also recorded” adds a separate entry of the source.
How the values were obtained:
[1] = test system: CEM leukemia cells; assay: Suppression of ROS production (DCFH-DA flow cytometry) in DEM-treated CEM leukemia cells; type: cell-based; settings: CEM leukemia cells pretreated with DEM, read-out: Scavenging activity (%), suppression of ROS production
Protocol: FIG. 1. Flow cytometric analysis of CEM leukemia lymphocytes (gray bars) and FRDA lymphocytes (black bars) stained with dichlorodihydrofluorescein diacetate (DCFH-DA) for 20 min, following pretreatment with the test compounds at 5 μM concentration for 16 h, and subsequent treatment with diethyl maleate (DEM) for 60 or 80 min to induce the production of ROS in CEM and FRDA lymphocytes, respectively. Data shown represent the mean±SEM of two different experiments run as duplicates.
Intracellular ROS production was measured in FRDA lymphocyte cells (GM15850, Coriell Cell Repositories, Camden, N.J.) using the oxidant sensitive fluorescent probe 2,7-dichlorodihydrofluorescein diacetate (DCFH-DA) (Molecular Probes) as described previously (Khdour et al. (2011) Pharm. Res. 28, 2896-2909). One mL of FRDA lymphocyte cells or leukemic CEM cells (5×10^5 cells) were plated in a 24-well plate, treated with the test compounds and incubated at 37° C. for 16 h in a humidified atmosphere containing 5% CO2 in air. Cells were treated with 5 mM diethyl maleate (DEM) for 80 min or 60 min respectively, collected by centrifugation at 300×g for 3 min and then washed with phosphate buffered saline (PBS) (Life Technologies). Cells were resuspended in PBS containing 20 mM glucose and incubated at 37° C. in the dark for […] with 10 μM DCFH-DA. Cells were collected by centrifugation at 300×g for 3 min and then washed with PBS. The samples were analyzed immediately by flow cytometry (C6 Accuri, BD Biosciences, San Jose, Calif.), using a 488 nm excitation laser and the FL1-H channel 530±15 nm emission filter. The generation of ROS, mainly peroxides, was detected as a result of the oxidation of DCFH. In each analysis, 10,000 events were recorded after cell debris was electronically gated out. Results obtained were verified by running duplicates and repeating experiments in three independent runs. Results were expressed as percentage of ROS scavenging activity.
The ability of the synthesized analogues to quench ROS and lipid peroxidation was evaluated in FRDA lymphocytes or leukemic CEM cells. These cells were placed under oxidative stress by depleting them of glutathione (GSH) using diethyl maleate (DEM). Depletion of glutathione by treatment FRDA lymphocytes or leukemic CEM cells with DEM has been used to induce oxidative stress in cellular systems by generation of ROS. Intracellular ROS production was measured using the oxidant sensitive fluorescent probe 2,7-dichlorodihydrofluorescein diacetate (DCFH-DA) (Molecular Probes).

[2] = biological target: bovine heart mitochondrial complex I (Bos taurus, UniProt P03887+P17694+P42026); assay: Complex I (NADH-Q1 oxidoreductase) inhibition in submitochondrial particles; type: biochemical; settings: submitochondrial particles, 30° C.; for IC50: read-out: Complex I inhibition IC50; for Emax: read-out: Complex I inhibition Imax
[3] = test system: FRDA lymphocytes; assay: Preservation of mitochondrial membrane potential (TMRM flow cytometry) in DEM-treated FRDA lymphocytes; type: cell-based
Protocol: FIG. 3. Effect of nitrogen-containing 1,4-benzoquinone derivatives on mitochondrial membrane potential of cultured FRDA cells. Representative flow cytometric two dimensional color density dot plot analyses of mitochondrial membrane potential Δψm in FRDA lymphocytes stained with TMRM and analyzed using the FL2-H channel as described in Experimental Section. The cells were washed twice in phosphate buffered saline, and suspended in phosphate buffered saline containing 20 mM glucose. The percentage of cells with intact Δψm is indicated in the top right quadrant of captions. In each analysis, 10,000 events were recorded. Data are expressed as means±SEM of three independent experiments run in duplicate.
Mitochondrial membrane potential was measured using two different fluorescent dyes, TMRM and JC-1. Δψm was determined as previously described by staining FRDA lymphocyte cells with TMRM (Molecular Probes, Eugene, Oreg.) and analyzing fluorescence emission by flow cytometry in detection channel 2 (FL2-H) (Khdour et al. (2011) Pharmaceut. Res. 28, 2896-2909). Briefly, FRDA lymphocytes were pre-treated with or without the test compounds for 16 h. The cells were treated with 5 mM DEM for 140 min, collected by centrifugation at 300×g for 3 min and then washed twice with phosphate buffered saline. The cells were resuspended in PBS containing […] and incubated at 37° C. in the dark for 15 min with 250 nM TMRM. Cells were collected by centrifugation at 300×g for 3 min and were then washed with phosphate buffered saline. The samples were analyzed immediately by flow cytometry using a 488 nm excitation laser and the FL2-H channel. The results obtained were verified in three independent experiments. […] In each analysis, 10,000 events were recorded. […] The following day, cells were treated with tested compounds and incubated for an additional 12 h before treatment with 1 mM BSO. Δψm was assessed after 24 h using JC-1 Mitochondrial Membrane Potential Detection Kit (Biotium, Inc) following the manufacturer instruction. Glass cover slips were rinsed with phosphate-buffered saline and mounted onto slides, and images were recorded and analyzed with a Zeiss AxioCam MRm and AxioVision 3.1 software (Carl Zeiss Goettingen, Germany) on a Zeiss Axiovert 200 M inverted microscope, equipped with a 40× oil immersion objective.
The ability of the test compounds to preserve mitochondrial membrane potential under conditions of oxidative stress was studied. […] Changes in mitochondrial membrane potential (Δψm) were measured using two different fluorescent dyes, tetramethylrhodamine methyl ester (TMRM) and 5,5′,6,6′-tetrachloro-1,1′,3,3′-tetraethylbenzimidazolocarbocyanine iodide (JC-1). […] The fluorescence signal of TMRM can be directly co-related to Δψm across the inner mitochondrial membrane. […]

Sequence of bovine heart mitochondrial complex I (P25708 21-464): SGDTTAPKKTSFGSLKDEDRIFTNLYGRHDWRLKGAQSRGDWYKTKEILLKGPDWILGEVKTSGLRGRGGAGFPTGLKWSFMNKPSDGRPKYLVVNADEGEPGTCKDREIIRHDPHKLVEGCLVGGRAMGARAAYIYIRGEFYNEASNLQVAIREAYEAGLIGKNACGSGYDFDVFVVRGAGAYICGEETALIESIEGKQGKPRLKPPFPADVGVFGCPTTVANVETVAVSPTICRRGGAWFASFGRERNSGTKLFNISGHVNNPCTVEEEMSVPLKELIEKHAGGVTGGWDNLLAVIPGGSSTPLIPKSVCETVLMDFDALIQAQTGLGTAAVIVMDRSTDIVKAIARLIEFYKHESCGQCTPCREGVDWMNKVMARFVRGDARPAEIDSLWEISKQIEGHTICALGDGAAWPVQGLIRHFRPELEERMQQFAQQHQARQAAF
Sequence of bovine heart mitochondrial complex I (P42026 38-216): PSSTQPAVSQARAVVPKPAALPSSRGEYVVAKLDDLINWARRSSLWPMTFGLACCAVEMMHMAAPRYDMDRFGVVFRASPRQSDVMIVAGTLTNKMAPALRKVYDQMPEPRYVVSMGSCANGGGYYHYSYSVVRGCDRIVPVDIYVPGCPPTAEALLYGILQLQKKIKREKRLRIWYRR
Sequence of bovine heart mitochondrial complex I (P17694 34-463): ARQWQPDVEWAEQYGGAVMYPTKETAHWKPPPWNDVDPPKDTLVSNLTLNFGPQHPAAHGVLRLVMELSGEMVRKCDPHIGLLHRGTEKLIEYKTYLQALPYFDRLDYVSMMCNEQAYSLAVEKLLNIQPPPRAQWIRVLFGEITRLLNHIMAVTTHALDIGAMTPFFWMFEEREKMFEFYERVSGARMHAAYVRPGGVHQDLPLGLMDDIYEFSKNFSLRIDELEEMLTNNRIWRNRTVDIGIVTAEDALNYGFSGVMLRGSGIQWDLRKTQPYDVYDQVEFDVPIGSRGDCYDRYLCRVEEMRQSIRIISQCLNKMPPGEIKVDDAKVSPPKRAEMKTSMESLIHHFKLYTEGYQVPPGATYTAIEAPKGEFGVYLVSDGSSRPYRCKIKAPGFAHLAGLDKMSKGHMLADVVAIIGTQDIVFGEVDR
Sequence of bovine heart mitochondrial complex I (P15690 24-727, further chain): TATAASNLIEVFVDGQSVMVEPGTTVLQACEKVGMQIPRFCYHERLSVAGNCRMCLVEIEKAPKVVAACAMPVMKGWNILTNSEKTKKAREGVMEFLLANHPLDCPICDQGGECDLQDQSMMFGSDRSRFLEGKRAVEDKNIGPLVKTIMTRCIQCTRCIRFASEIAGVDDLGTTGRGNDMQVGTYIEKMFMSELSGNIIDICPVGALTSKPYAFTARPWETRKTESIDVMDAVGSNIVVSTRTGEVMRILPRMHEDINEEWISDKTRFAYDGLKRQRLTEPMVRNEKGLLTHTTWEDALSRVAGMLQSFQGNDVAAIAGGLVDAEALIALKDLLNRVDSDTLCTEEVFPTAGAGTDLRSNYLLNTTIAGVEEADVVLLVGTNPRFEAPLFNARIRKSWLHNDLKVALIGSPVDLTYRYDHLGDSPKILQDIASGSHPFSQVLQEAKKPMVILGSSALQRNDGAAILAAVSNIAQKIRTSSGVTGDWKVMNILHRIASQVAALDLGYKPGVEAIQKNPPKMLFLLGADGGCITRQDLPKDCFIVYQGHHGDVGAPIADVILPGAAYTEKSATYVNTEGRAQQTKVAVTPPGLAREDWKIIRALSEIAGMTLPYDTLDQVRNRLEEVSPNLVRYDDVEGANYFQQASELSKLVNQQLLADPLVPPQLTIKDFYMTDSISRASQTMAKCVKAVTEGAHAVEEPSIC
Sequence of bovine heart mitochondrial complex I (P03887 whole entry): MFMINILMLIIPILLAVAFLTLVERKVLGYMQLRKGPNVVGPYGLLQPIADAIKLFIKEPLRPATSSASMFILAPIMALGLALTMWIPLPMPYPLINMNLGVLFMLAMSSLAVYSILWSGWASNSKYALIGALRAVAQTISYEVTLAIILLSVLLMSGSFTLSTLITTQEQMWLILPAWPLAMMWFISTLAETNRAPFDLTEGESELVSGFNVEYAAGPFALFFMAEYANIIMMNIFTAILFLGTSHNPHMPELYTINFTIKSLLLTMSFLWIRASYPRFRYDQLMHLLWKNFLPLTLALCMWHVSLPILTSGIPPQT
Sequence of bovine heart mitochondrial complex I (P42028 37-212, further chain): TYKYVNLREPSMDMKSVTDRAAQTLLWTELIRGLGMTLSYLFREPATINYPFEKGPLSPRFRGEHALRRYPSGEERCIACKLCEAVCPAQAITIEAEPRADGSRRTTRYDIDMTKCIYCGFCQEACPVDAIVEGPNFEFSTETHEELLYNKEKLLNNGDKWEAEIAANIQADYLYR

SMILES | inhibition at 5 µM [1] | IC50 [2] | Emax [2] | Preservation of mitochondrial membrane potential Δψm (in words) [3]
CCCCCCCCCCCCCC1=C(OC)C(=O)C(C)=C(NCCCC(=O)OC(C)(C)C)C1=O [Compound 43, tert-butyl 4-(4-methoxy-2-methyl-3,6-dioxo-5-tridecylcyclohexa-1,4-dienylamino)butanoate] | 35 ± 6% |  |  | 
CCCCCCCCCCCCCC1=C(OC)C(=O)C=C(NCCCC(=O)OCCCCCC)C1=O [Compound 18, Hexyl 4-(4-methoxy-3,6-dioxo-5-tridecylcyclohexa-1,4-dienylamino)butanoate] |  | 513 ± 38 µM | > 85% | prevented the loss of Δψm
CCCCCCCCCCCCCC1=C(OC)C(=O)C(C)=C(NCCCC(=O)OCCCC)C1=O [Compound 46, Butyl 4-(4-methoxy-2-methyl-3,6-dioxo-5-tridecylcyclohexa-1,4-dienylamino)butanoate] | 50 ± 5% |  |  | 
CCCCCCCCCCCCCC1=C(OC)C(=O)C(C)=C(NCCCC(=O)OCCCCCC)C1=O [Compound 49, Hexyl 4-(4-methoxy-2-methyl-3,6-dioxo-5-tridecylcyclohexa-1,4-dienylamino)butanoate] | 16 ± 8% |  |  | 
CCCCCCCCCCCCCC1=C(NCCCC(=O)OCCCCCC)C(=O)C(C)=C(NCCCC(=O)OCCCCCC)C1=O [Compound 50, 2,5-bis(hexyl 4-aminobutanoate)-3-methyl-6-tridecylcyclohexa-2,5-diene-1,4-dione] | 14 ± 1% |  |  | 
CCCCCCCCCCCCCC1=C(OC)C(=O)C=C(NCCCC(=O)OC(C)(C)C)C1=O [Compound 7, tert-butyl 4-(4-methoxy-3,6-dioxo-5-tridecylcyclohexa-1,4-dienylamino)butanoate] |  | 540 ± 17 µM | > 85% | preserved mitochondrial membrane potential; also recorded: able to prevent oxidative-stress induced collapse of Δψm
COC1=C2CCCCCCCCCCCCCCCNC(=CC1=O)C2=O [Compound 40] |  |  |  | prevented the loss of Δψm; also recorded: able to prevent oxidative-stress induced collapse of Δψm

— US9957214B2, “Multifunctional radical quenchers” (ARIZONA BOARD OF REGENTS ON BEHALF OF ARIZONA STATE …, priority 2012, dated 2018)
